For 18 compounds, melting point, inhibition and IC50 results are on record in paper PMC7336998, “Discovery of secondary sulphonamides as IDO1 inhibitors with potent antitumour effects in vivo” (Journal of Enzyme Inhibition and Medicinal Chemistry, 2020).

pIC50: −log10 of the molar value.

In data set [1] the target is T1, IDO1 (Homo sapiens, UniProt P14902).
T1 construct: a human cervical cancer cell line HeLa that endogenously expresses IDO1 upon IFN-γ treatment; endogenous in cells; host or cells: HeLa cells treated with human IFN-γ
T1 sequence (P14902 whole entry): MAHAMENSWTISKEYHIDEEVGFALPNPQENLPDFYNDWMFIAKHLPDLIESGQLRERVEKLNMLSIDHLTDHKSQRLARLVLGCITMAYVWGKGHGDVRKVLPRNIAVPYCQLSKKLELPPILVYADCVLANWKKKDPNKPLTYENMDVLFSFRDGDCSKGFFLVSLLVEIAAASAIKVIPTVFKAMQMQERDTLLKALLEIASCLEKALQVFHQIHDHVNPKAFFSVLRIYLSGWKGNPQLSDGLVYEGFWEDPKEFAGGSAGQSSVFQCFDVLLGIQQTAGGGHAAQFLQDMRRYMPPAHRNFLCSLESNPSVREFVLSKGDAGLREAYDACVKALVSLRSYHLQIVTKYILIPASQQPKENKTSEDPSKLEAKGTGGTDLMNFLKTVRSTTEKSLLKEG
Briefly: HeLa cell-based IDO1/kynurenine assay. The settings on record: for inhibition at 30 µM: percentage inhibition at 30 μM, IFN-γ-treated HeLa cells, kynurenine in media; for pIC50: HeLa cells, IFN-γ induced IDO1, kynurenine readout. The procedure: The main bioassays performed in the study, including HeLa cell-based IDO1/kynurenine assay, Western blot analysis, T cell proliferation and Treg cell differentiation experiments, were carried out as described previously.
It is well known that IDO1 is broadly expressed in human cancers and is induced by pro-inflammatory cytokines, such as interferon gamma (IFN-γ) and tumour necrosis factor alpha (TNF-α)[41]. Here we utilised a human cervical cancer cell line HeLa that endogenously expresses IDO1 upon IFN-γ treatment to evaluate the IDO1 inhibitory activity of the synthesised compounds by measuring kynurenine secreted into the media. […] Thus, we also employed this cellular assay to detect false positive IDO1 inhibitors and cytotoxic compounds by measuring HeLa cell viability. Clinical candidate navoximod was used as an assay control.

By melting point is commonly meant the temperature of the solid-liquid transition. Broadly, the inhibition is the drop in the measured response relative to a control, in per cent. With `CC(=O)Nc1ccc(S(=O)(=O)Nc2ccccc2)cc1` [3a, N-(4-(N-Phenylsulfamoyl)phenyl)acetamide], the melting point lay in the range of 204 to 206 °C. The inhibition at 30 µM in data set [1] was 3.9%.

In the case of `CC(=O)Nc1ccc(S(=O)(=O)Nc2ccc(C)cc2)cc1` [3b, N-(4-(N-(p-Tolyl)sulfamoyl)phenyl)acetamide], the inhibition at 30 µM in data set [1] came out at 16.3%.

`CC(=O)Nc1ccc(S(=O)(=O)Nc2ccc(C(C)C)cc2)cc1` [3c, N-(4-(N-(4-Isopropylphenyl)sulfamoyl)phenyl)acetamide]: the melting point is 186 to 188 °C. Moreover, the inhibition at 30 µM in data set [1] amounted to 5.9%.

`CC(=O)Nc1ccc(S(=O)(=O)Nc2cccc(C(C)C)c2)cc1` [3d, N-(4-(N-(3-Isopropylphenyl)sulfamoyl)phenyl)acetamide] returned a melting point of 158 to 160 °C. Besides, the inhibition at 30 µM in data set [1] amounted to 14.6%.

As for `CC(=O)Nc1ccc(S(=O)(=O)NCc2ccccc2)cc1` [3e, N-(4-(N-Benzylsulfamoyl)phenyl)acetamide], the inhibition at 30 µM in data set [1] came to 2.5%.

The compound `CC(=O)Nc1ccc(S(=O)(=O)NCc2ccc(Cl)cc2)cc1` [3f, N-(4-(N-(4-Chlorobenzyl)sulfamoyl)phenyl)acetamide] displayed a melting point of 172 to 174 °C. Moreover, in data set [1], the inhibition at 30 µM is 13.5%.

Regarding `CC(=O)Nc1ccc(S(=O)(=O)NCc2ccc(C(F)(F)F)cc2)cc1` [3g, N-(4-(N-(4-(Trifluoromethyl)benzyl)sulfamoyl)phenyl)acetamide], the melting point was 186 to 188 °C. Besides, the inhibition at 30 µM in data set [1] stood at 14.5%.

As for `CC(=O)Nc1ccc(S(=O)(=O)NCc2cccc(C(F)(F)F)c2)cc1` [3h, N-(4-(N-(3-(Trifluoromethyl)benzyl)sulfamoyl)phenyl)acetamide], the melting point lay in the range of 154 to 156 °C. The inhibition at 30 µM in data set [1] was 7.8%.

The compound `CC(=O)Nc1ccc(S(=O)(=O)NCCc2ccccc2)cc1` [3i, N-(4-(N-Phenethylsulfamoyl)phenyl)acetamide] registered a melting point of 130 to 132 °C. Besides, the inhibition at 30 µM in data set [1] worked out at 5.9%.

On to `Nc1ccc(S(=O)(=O)Nc2ccccc2)cc1` [4a, 4-Amino-N-phenylbenzenesulfonamide], for which the inhibition at 30 µM in data set [1] is 12%.

As for `Cc1ccc(NS(=O)(=O)c2ccc(N)cc2)cc1` [4b, 4-Amino-N-(p-tolyl)benzenesulfonamide], the inhibition at 30 µM in data set [1] was 10.8%.

Take `Nc1ccc(S(=O)(=O)NCc2ccccc2)cc1` [4c, 4-Amino-N-benzylbenzenesulfonamide]: in data set [1], the inhibition at 30 µM was found to be 7.4%.

Consider `Nc1ccc(S(=O)(=O)NCc2ccc(Cl)cc2)cc1` [4d, 4-Amino-N-(4-chlorobenzyl)benzenesulfonamide], for which the melting point lay within 172 to 174 °C. The inhibition at 30 µM in data set [1] was -4.2%.

What is called pIC50 is the negative decadic logarithm of the IC50, by convention in mol/L. A high value points to a small IC50. On to `Nc1ccc(S(=O)(=O)NCc2cccc(Cl)c2)cc1` [4e, 4-Amino-N-(3-chlorobenzyl)benzenesulfonamide], for which the melting point was in the range of 119 to 121 °C. In addition, in data set [1], the pIC50 was less than 4.30 and the inhibition at 30 µM is 2.3%.

Take `Nc1ccc(S(=O)(=O)NCCc2ccccc2)cc1` [4f, 4-Amino-N-phenethylbenzenesulfonamide]: the inhibition at 30 µM in data set [1] amounted to 3.1%.

`C=CC(=O)Nc1ccc(S(=O)(=O)NCc2ccccc2)cc1` [5a, N-(4-(N-Benzylsulfamoyl)phenyl)acrylamide] returned a melting point of 116 to 118 °C. Besides, in data set [1], the negative-log IC50 (pIC50) is 4.65 and the inhibition at 30 µM is 62.5%.

`C=CC(=O)Nc1ccc(S(=O)(=O)NCc2ccc(OC)cc2)cc1` [5b, N-(4-(N-(4-Methoxybenzyl)sulfamoyl)phenyl)acrylamide]: the melting point is 156 to 158 °C. For the same compound, in data set [1], the pIC50 was 4.40 and the inhibition at 30 µM is 36%.

In turn, `C=CC(=O)Nc1ccc(S(=O)(=O)NCc2ccc(Cl)cc2)cc1` [5c, N-(4-(N-(4-Chlorobenzyl)sulfamoyl)phenyl)acrylamide] displayed a melting point of 190 to 192 °C. Moreover, in data set [1], the pIC50 is 4.44 and the inhibition at 30 µM came out at 40.4%.
